Species: Rattus norvegicus
Assay: DrugMatrix - Regimen: Daily Repeat
Format: toxicity, organism-based, Sprague-Dawley
Design: regimen Daily Repeat, gender Male, age 6-8 weeks
Conditions: in vivo, po, route oral GAVAGE, vehicle .5 % CMC; for ABSOLUTE BASOPHIL / ABSOLUTE EOSINOPHIL / ABSOLUTE LYMPHOCYTE / ABSOLUTE MONOCYTE / ABSOLUTE SEGMENTED NEUTROPHIL / BASOPHIL / EOSINOPHIL / ERYTHROCYTE COUNT / HEMATOCRIT / HEMOGLOBIN / LEUKOCYTE COUNT / LYMPHOCYTE / MEAN CORPUSCULAR HEMOGLOBIN / MEAN CORPUSCULAR HEMOGLOBIN CONCENTRATION / MEAN CORPUSCULAR VOLUME / MONOCYTE / NEUTROPHIL / NUCLEATED RED BLOOD CELLS / PLATELET COUNT: tissue Blood; for ALANINE AMINOTRANSFERASE / ALBUMIN / ALKALINE PHOSPHATASE / ASPARTATE AMINOTRANSFERASE / BLOOD UREA NITROGEN / CARBON DIOXIDE / CHLORIDE / CHOLESTEROL / CREATINE PHOSPHOKINASE / CREATININE / GLUCOSE / LACTATE DEHYDROGENASE / LIPASE / PHOSPHORUS / POTASSIUM / SODIUM / TOTAL BILIRUBIN / TOTAL PROTEIN / URIC ACID: tissue Plasma
[1] = 0 mg/kg, 72 h, dose level Control, time 3 day
[2] = 0 mg/kg, 120 h, dose level Control, time 5 day
[3] = 100 mg/kg, 72 h, dose level Low, time 3 day

CN/C(=N/CCSCc1nc[nH]c1C)NC#N [CIMETIDINE]
ABSOLUTE BASOPHIL [1]: 0 CELLS/uL
ABSOLUTE EOSINOPHIL [1]: 0 CELLS/uL
ABSOLUTE LYMPHOCYTE [1]: 12191.17 CELLS/uL
ABSOLUTE MONOCYTE [1]: 183.17 CELLS/uL
ABSOLUTE SEGMENTED NEUTROPHIL [1]: 1192.33 CELLS/uL
BASOPHIL [1]: 0%
EOSINOPHIL [1]: 0%
ERYTHROCYTE COUNT [1]: 5.51 x10E6/uL
HEMATOCRIT [1]: 35.45%
HEMOGLOBIN [1]: 13.82 G/DL
LEUKOCYTE COUNT [1]: 13.57 x10E3/uL
LYMPHOCYTE [1]: 89.83%
MEAN CORPUSCULAR HEMOGLOBIN [1]: 25.1 pg
MEAN CORPUSCULAR HEMOGLOBIN CONCENTRATION [1]: 38.98 G/DL
MEAN CORPUSCULAR VOLUME [1]: 64.42 fL
MONOCYTE [1]: 1.33%
NEUTROPHIL [1]: 8.83%
NUCLEATED RED BLOOD CELLS [1]: 0 /100WBC
PLATELET COUNT [1]: 1118.17 x10E3/uL
ALANINE AMINOTRANSFERASE [1]: 55 u/L
ALBUMIN [1]: 4.15 G/DL
ALKALINE PHOSPHATASE [1]: 449.5 u/L
ASPARTATE AMINOTRANSFERASE [1]: 112.83 u/L
BLOOD UREA NITROGEN [1]: 17.33 mg/dL
CARBON DIOXIDE [1]: 29.5 mmol/L
CHLORIDE [1]: 101 MEQ/L
CHOLESTEROL [1]: 70 mg/dL
CREATINE PHOSPHOKINASE [1]: 1325.83 u/L
CREATININE [1]: 0.18 mg/dL
GLUCOSE [1]: 171.5 mg/dL
LACTATE DEHYDROGENASE [1]: 386 u/L
LIPASE [1]: 10 u/L
PHOSPHORUS [1]: 11.57 mg/dL
POTASSIUM [1]: 6.21 MEQ/L
SODIUM [1]: 141.65 MEQ/L
TOTAL BILIRUBIN [1]: 0.15 mg/dL
TOTAL PROTEIN [1]: 5.75 G/DL
URIC ACID [1]: 1.28 mg/dL
ABSOLUTE BASOPHIL [2]: 0 CELLS/uL
ABSOLUTE EOSINOPHIL [2]: 138.17 CELLS/uL
ABSOLUTE LYMPHOCYTE [2]: 13283.17 CELLS/uL
ABSOLUTE MONOCYTE [2]: 303.83 CELLS/uL
ABSOLUTE SEGMENTED NEUTROPHIL [2]: 1308.17 CELLS/uL
BASOPHIL [2]: 0%
EOSINOPHIL [2]: 1%
ERYTHROCYTE COUNT [2]: 5.32 x10E6/uL
HEMATOCRIT [2]: 33.8%
HEMOGLOBIN [2]: 13.63 G/DL
LEUKOCYTE COUNT [2]: 15.03 x10E3/uL
LYMPHOCYTE [2]: 88.33%
MEAN CORPUSCULAR HEMOGLOBIN [2]: 25.68 pg
MEAN CORPUSCULAR HEMOGLOBIN CONCENTRATION [2]: 40.35 G/DL
MEAN CORPUSCULAR VOLUME [2]: 63.67 fL
MONOCYTE [2]: 1.83%
NEUTROPHIL [2]: 8.83%
NUCLEATED RED BLOOD CELLS [2]: 0 /100WBC
PLATELET COUNT [2]: 1097.5 x10E3/uL
ALANINE AMINOTRANSFERASE [2]: 54.5 u/L
ALBUMIN [2]: 4.27 G/DL
ALKALINE PHOSPHATASE [2]: 337 u/L
ASPARTATE AMINOTRANSFERASE [2]: 94.67 u/L
BLOOD UREA NITROGEN [2]: 17 mg/dL
CARBON DIOXIDE [2]: 28.33 mmol/L
CHLORIDE [2]: 101.5 MEQ/L
CHOLESTEROL [2]: 71.33 mg/dL
CREATINE PHOSPHOKINASE [2]: 628.17 u/L
CREATININE [2]: 0.19 mg/dL
GLUCOSE [2]: 177.83 mg/dL
LACTATE DEHYDROGENASE [2]: 500.5 u/L
LIPASE [2]: 9.5 u/L
PHOSPHORUS [2]: 12.3 mg/dL
POTASSIUM [2]: 5.63 MEQ/L
SODIUM [2]: 143.03 MEQ/L
TOTAL BILIRUBIN [2]: 0.2 mg/dL
TOTAL PROTEIN [2]: 6.02 G/DL
URIC ACID [2]: 1.5 mg/dL
ABSOLUTE BASOPHIL [3]: 0 CELLS/uL
ABSOLUTE EOSINOPHIL [3]: 0 CELLS/uL
ABSOLUTE LYMPHOCYTE [3]: 13567.33 CELLS/uL
ABSOLUTE MONOCYTE [3]: 279 CELLS/uL
ABSOLUTE SEGMENTED NEUTROPHIL [3]: 1153.67 CELLS/uL
BASOPHIL [3]: 0%
EOSINOPHIL [3]: 0%
ERYTHROCYTE COUNT [3]: 5.31 x10E6/uL
HEMATOCRIT [3]: 33.83%
HEMOGLOBIN [3]: 13.33 G/DL
LEUKOCYTE COUNT [3]: 15 x10E3/uL
LYMPHOCYTE [3]: 89.67%
MEAN CORPUSCULAR HEMOGLOBIN [3]: 25.1 pg
MEAN CORPUSCULAR HEMOGLOBIN CONCENTRATION [3]: 39.4 G/DL
MEAN CORPUSCULAR VOLUME [3]: 63.63 fL
MONOCYTE [3]: 2%
NEUTROPHIL [3]: 8.33%
NUCLEATED RED BLOOD CELLS [3]: 0 /100WBC
PLATELET COUNT [3]: 1282 x10E3/uL
ALANINE AMINOTRANSFERASE [3]: 53 u/L
ALBUMIN [3]: 4.17 G/DL
ALKALINE PHOSPHATASE [3]: 373 u/L
ASPARTATE AMINOTRANSFERASE [3]: 80.33 u/L
BLOOD UREA NITROGEN [3]: 17.67 mg/dL
CARBON DIOXIDE [3]: 30 mmol/L
CHLORIDE [3]: 100.33 MEQ/L
CHOLESTEROL [3]: 78.33 mg/dL
CREATINE PHOSPHOKINASE [3]: 276 u/L
CREATININE [3]: 0.18 mg/dL
GLUCOSE [3]: 159.67 mg/dL
LACTATE DEHYDROGENASE [3]: 157.33 u/L
LIPASE [3]: 10 u/L
PHOSPHORUS [3]: 10.93 mg/dL
POTASSIUM [3]: 6.04 MEQ/L
SODIUM [3]: 141.53 MEQ/L
TOTAL BILIRUBIN [3]: 0.17 mg/dL
TOTAL PROTEIN [3]: 5.77 G/DL
URIC ACID [3]: 1.33 mg/dL

From ChEMBL document CHEMBL3885881, “DrugMatrix”
